Holding throughout (assay): inhibition of tumour cell growth, NCI panel, 48 h
Assay [1] has as its system CAKI-1 renal.
For assay [2], the system named is IGROV1 ovarian.
Assay [3] has as its system K-562 leukemia.
The subject of assay [4] is M14 melanoma.
Assay [5] concerns MDA-MB-435.
Assay [6] has as its system NCI-H226 lung.
Assay [7] deals with NCI-H460 lung.
Assay [8] has as its system RPMI-8226 leukemia.
Assay [9] relates to SK-OV-3 ovarian.
The test system of assay [10] is UO-31 renal.

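All cell lines were grown in 96-well plates and treated with compound for 48 hours. The concentration for 50% growth inhibition is given as GI50. At the TGI there is no net growth.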

On to `Cc1c(Sc2ccccc2)[n+](=O)c2cc(Cl)c(Cl)cc2n1[O-]`, for which the GI50 in assay [1] was 42 µM; in assay [2], 15.5 µM; in assay [3] it was 2.22 µM; in assay [4], 46.8 µM; in assay [5] it was 95.6 µM; in [6] it was above 100 µM. Moreover, the GI50 was above 100 µM in [7], 51.7 µM in assay [8], above 100 µM in assay [9] and above 100 µM in assay [10]. Besides, the TGI in assay [1] is above 100 µM; in assay [2], 38 µM; in assay [3], 11.3 µM; in assay [4], above 100 µM; in [5], above 100 µM; in assay [6], above 100 µM. Further, the TGI in assay [7], in [8], in assay [9] and in assay [10] was above 100 µM throughout.

As to `Clc1nc(Cl)c2ncn(Cc3ccc(Cn4cnc5c(Cl)nc(Cl)nc54)cc3)c2n1`, the GI50 was 13.6 µM in assay [1]; 6.08 µM in [2]; 0.661 µM in assay [3]; 11.2 µM in assay [4]; 14.2 µM in [5]; 11.2 µM in assay [6]. Besides, the values for the GI50 in assay [7], in assay [9] and in [10] were 4.75 µM, above 100 µM and 5.01 µM, respectively. Besides, the TGI in assay [1] was found to be 27.8 µM; in [2], 20.6 µM; in assay [3] it was 14 µM; in [4] it was 27 µM; in assay [5] it was 33.6 µM; in [6], 51.6 µM. Besides, the TGI is 22.2 µM in assay [7], 7.07 µM in [8], above 100 µM in assay [9] and 20.1 µM in [10].

As to `C=C1c2c(Cl)ccc(O)c2C(O)=C2C(=O)[C@]3(O)C(O)=C(C(N)=O)C(=O)[C@@H](N(C)C)[C@@H]3[C@@H](O)[C@H]12`, the GI50 in assay [1] was 0.499 µM; in assay [2], 1.03 µM; in [3] it was 1.66 µM; in assay [4] it was 1.32 µM; in assay [5] it was 1.53 µM; in assay [6], 1.59 µM. Further, the GI50 in assay [7] is 1.17 µM; in [8], 1.1 µM; in assay [9], 1 µM; in assay [10] it was 1.19 µM. The TGI in assay [1] was 3.4 µM; in assay [2] it was 5.22 µM; in assay [3] it was above 50 µM; in assay [4], 5.79 µM; in assay [5], 7.97 µM; in assay [6], 8.91 µM. The TGI in [7] was 7.54 µM; in assay [8], 4.25 µM; in assay [9], 3.2 µM; in assay [10], 6.22 µM.

For the compound `CC(Br)C(=O)Nc1ccc(C(=O)O)c(O)c1` (stereo not drawn), the TGI in assay [1], in assay [2], in [3], in assay [4], in [5] and in [6] was above 100 µM in each case. The TGI in assay [7], in [8], in assay [9] and in [10] was above 100 µM throughout.

As for `O=S(=O)(NCCNc1nccc(-c2c(-c3ccc(F)cc3)nc3sccn23)n1)c1ccccc1`, the GI50 in [1] is 3.24 µM; in assay [2], 2.99 µM; in assay [3], 4.35 µM; in assay [4] it was 4.94 µM; in [5], 2.56 µM; in [6] it was 7.73 µM. The GI50 was 2.72 µM in assay [7], 3.79 µM in assay [8], 10.8 µM in [9] and 1.83 µM in assay [10]. For the same compound, the TGI is above 100 µM in [1]; 32.7 µM in [2]; above 100 µM in assay [3]; above 100 µM in assay [4]; above 100 µM in assay [5]; above 100 µM in assay [6]. The TGI was above 100 µM in assay [7], 33 µM in [8], above 100 µM in assay [9] and 39.8 µM in assay [10].

Regarding `NCCSCCc1ccccc1`, the TGI in [1], in assay [2], in assay [3], in assay [4], in assay [5] and in [6] was above 100 µM each time. In addition, the TGI in assay [7], in assay [8], in assay [9] and in assay [10] was above 100 µM throughout.

Turning to `CO[C@H]1CC(c2ccc[nH]2)=N[C@]12O[C@@H](C)C[C@@H]1CCCCCCCc3ccc([nH]3)[C@H]12`, the GI50 in [1] was 1.18 µM; in assay [2], 1.38 µM; in assay [3] it was 0.821 µM; in assay [4], 0.898 µM; in [5] it was 1.1 µM; in [6], 0.929 µM. In addition, the GI50 in [7] is 0.813 µM; in [8], 0.693 µM; in [9] it was 4.41 µM; in assay [10] it was 0.932 µM. The TGI in assay [1] is 11.3 µM; in assay [2] it was 10.8 µM; in assay [3], above 24.2 µM; in assay [4] it was 3.35 µM; in [5], 4.29 µM; in assay [6], 5.25 µM. For the same compound, the TGI in [7] was 6.07 µM; in assay [8], 2.96 µM; in assay [9] it was 18.9 µM; in assay [10] it was 4.2 µM.

Regarding `CSc1cccc(NC(=O)OC2CCCCCCCCCCC2)c1`, the TGI in [1] is 61 µM; in assay [2], above 100 µM; in assay [3] it was 93.7 µM; in assay [4] it was 59.5 µM; in [5] it was 39.9 µM; in [6], 61.7 µM. For the same compound, the TGI in assay [7] worked out at 35.2 µM; in [8], 54.4 µM; in assay [9] it was 57.9 µM; in [10], 22 µM.

Consider `CC(C)COC(=O)c1ccc2[nH]c(O)c(C=Nc3ccc(S(N)(=O)=O)cc3)c2c1`, for which the GI50 is 2.86 µM in [1]; 1.75 µM in assay [2]; 2.32 µM in [3]; 1.25 µM in assay [4]; 1.68 µM in [5]; 1.73 µM in [6]. Also, the GI50 in [7] was 0.787 µM; in [8], 2.55 µM; in [9], 2.19 µM; in [10], 2.44 µM. Moreover, the TGI was 16.7 µM in assay [1]; 8.01 µM in [2]; 17.1 µM in [3]; 4.8 µM in assay [4]; 5.79 µM in [5]; 6.79 µM in assay [6]. The TGI in assay [7] came out at 3.41 µM; in [8], 18.8 µM; in assay [9], 6.25 µM; in assay [10], 10.2 µM.

In the case of `COc1ccc(-c2nn(-c3cccc(NC(=O)c4ccc(N5CCOCC5)c(C(F)(F)F)c4)c3)cc2-c2ccncc2)cc1Cl`, the GI50 in assay [1] is 3.64 µM; in [2], above 50 µM; in [3], 1.89 µM; in assay [4], 4.54 µM; in [5], 2.6 µM; in [6], 21.3 µM. Also, the GI50 in [7] is 5.23 µM; in assay [8], 2.06 µM; in assay [9], 32.8 µM; in assay [10] it was 20.8 µM. The TGI in [1] is above 50 µM; in assay [2], above 50 µM; in assay [3] it was above 50 µM; in assay [4], 38.1 µM; in assay [5] it was 35 µM; in assay [6] it was above 50 µM. Further, the TGI in [7], in assay [8], in assay [9] and in [10] was above 50 µM each time.

In the case of `COc1ccc(Nc2cc(C)nc(N3CCN(c4ccnc5cc(Cl)ccc45)CC3)n2)cc1`, the GI50 in assay [1] was 2.71 µM; in [2] it was 4.39 µM; in assay [3], 2.34 µM; in [4] it was 1.75 µM; in assay [5], 1.06 µM; in assay [6], 4.7 µM. Further, the GI50 was 1.92 µM in assay [7], 2.18 µM in [8], 4.81 µM in assay [9] and 2.24 µM in [10]. The TGI in assay [1] is above 100 µM; in [2] it was above 100 µM; in assay [3], above 100 µM; in [4] it was 5.32 µM; in [5], 6.43 µM; in assay [6], above 100 µM. The TGI in assay [7] is above 100 µM; in assay [8], 8.91 µM; in assay [9], above 100 µM; in [10], above 100 µM.

With `O=C1C=CC(O)C2C1CC13SSC4(CC5C(=O)C=CC(O)C5N4C1=O)C(=O)N23` (stereo not drawn), the TGI in assay [1] was 0.957 µM; in assay [2], 3.43 µM; in assay [3], above 100 µM; in assay [4] it was 0.752 µM; in assay [5] it was 0.434 µM; in assay [6] it was 1.19 µM. Further, the TGI in assay [7] was above 34.2 µM; in assay [8] it was 0.093 µM; in [9] it was 14.1 µM; in [10], 1.27 µM.

On to `O=C1CC(c2ccc(Cl)cc2)Oc2ccccc21` (stereo not drawn), for which the TGI in [1] is 77.3 µM; in [2] it was 40.8 µM; in assay [3] it was 9.46 µM; in [4], 58.4 µM; in assay [5] it was above 100 µM; in [6], 33.6 µM. Also, the TGI in assay [7] is 45.3 µM; in assay [8], 9.12 µM; in [9], 61 µM; in assay [10], above 100 µM.

As to `COc1ccc2nc(NC(=O)c3cccnc3Nc3cc(OC)c(OC)c(OC)c3)sc2c1`, the GI50 was 16.4 µM in [1]; 13.2 µM in [2]; 8.91 µM in [3]; 10.5 µM in assay [4]; 1.85 µM in assay [5]; 10.7 µM in assay [6]. In addition, the GI50 in assay [7] is 7.42 µM; in [8], 9.94 µM; in assay [9], 3.72 µM; in [10], 9.3 µM. Besides, the TGI in assay [1] was 42.5 µM; in assay [2], 28.5 µM; in [3] it was above 100 µM; in assay [4], 29.6 µM; in assay [5], 10.4 µM; in assay [6] it was 96.7 µM. Besides, the TGI in assay [7] stood at 24 µM; in assay [8] it was 34.9 µM; in assay [9], 14.5 µM; in assay [10], 27.2 µM.

Take `O=[N+]([O-])c1ccc(S(=O)(=O)Cc2ccccc2)c2nonc12`: the TGI in assay [1] is 38.2 µM; in [2], 37.3 µM; in assay [3], 76.7 µM; in assay [4], 31.2 µM; in assay [5] it was 40.4 µM; in [6] it was above 100 µM. Further, the TGI was 37.8 µM in assay [7], 64.2 µM in [8], above 100 µM in [9] and 45.1 µM in [10].

On to `O=C1OC(c2ccccc2)=N/C1=C\c1cccc(F)c1`, for which the TGI was above 100 µM in [1]; above 100 µM in assay [2]; above 100 µM in assay [3]; above 100 µM in [4]; above 100 µM in assay [5]; 92.8 µM in assay [6]. For the same compound, the TGI was above 100 µM in assay [7], 50.1 µM in assay [8], above 100 µM in [9] and above 100 µM in assay [10].

With `O=C1c2nc3n(c2C(=O)c2c1nc1n2CCC1)CCC3`, the TGI is 23.9 µM in assay [1]; 24.5 µM in assay [2]; above 57.8 µM in assay [3]; 4.65 µM in assay [4]; 3.48 µM in [5]; 19.1 µM in assay [6]. In addition, the TGI in [7] is 6.24 µM; in assay [8], above 100 µM; in [9] it was 92.2 µM; in [10], 37.4 µM. Moreover, the GI50 was 4.88 µM in assay [4], 7.84 µM in assay [6], 3.89 µM in assay [7] and 9.83 µM in [8].

`CCCNc1nc2ccccc2c2c1S(=O)(=O)c1ccc(Cl)cc1C2=O`: the GI50 was 1.46 µM in assay [1]; 1.46 µM in [2]; 0.45 µM in assay [3]; 0.625 µM in assay [4]; 1.11 µM in [5]; 1.51 µM in assay [6]. In addition, the GI50 in assay [7] is 1.3 µM; in assay [8], 0.345 µM; in assay [9] it was 3.06 µM; in assay [10] it was 1.11 µM. Besides, the TGI in assay [1], in assay [2], in assay [3], in assay [4], in [5] and in [6] was above 50 µM throughout. The TGI in [7] is 4.47 µM; in [8] it was 2.86 µM; in assay [9], 41.1 µM; in [10], above 50 µM.

Values taken from PubChem BioAssay (NCI).
